Reference: patent US20230135635A1, “INHIBITORS OF ULK1/2 AND METHODS OF USING SAME” (SALK INSTITUTE FOR BIOLOGICAL STUDIES, priority 2020, published 2023)

Assays:
[1] = biological target: T1, recombinant human ULK1 protein (1-649) (Homo sapiens, UniProt O75385); test: ULK1 inhibition assay (ADP Glo); assay type: biochemical
T1 construct: recombinant human ULK1 protein (1-649, SignalChem #U01-11G); purchased SignalChem U01-11G
T1 sequence (O75385 1-649): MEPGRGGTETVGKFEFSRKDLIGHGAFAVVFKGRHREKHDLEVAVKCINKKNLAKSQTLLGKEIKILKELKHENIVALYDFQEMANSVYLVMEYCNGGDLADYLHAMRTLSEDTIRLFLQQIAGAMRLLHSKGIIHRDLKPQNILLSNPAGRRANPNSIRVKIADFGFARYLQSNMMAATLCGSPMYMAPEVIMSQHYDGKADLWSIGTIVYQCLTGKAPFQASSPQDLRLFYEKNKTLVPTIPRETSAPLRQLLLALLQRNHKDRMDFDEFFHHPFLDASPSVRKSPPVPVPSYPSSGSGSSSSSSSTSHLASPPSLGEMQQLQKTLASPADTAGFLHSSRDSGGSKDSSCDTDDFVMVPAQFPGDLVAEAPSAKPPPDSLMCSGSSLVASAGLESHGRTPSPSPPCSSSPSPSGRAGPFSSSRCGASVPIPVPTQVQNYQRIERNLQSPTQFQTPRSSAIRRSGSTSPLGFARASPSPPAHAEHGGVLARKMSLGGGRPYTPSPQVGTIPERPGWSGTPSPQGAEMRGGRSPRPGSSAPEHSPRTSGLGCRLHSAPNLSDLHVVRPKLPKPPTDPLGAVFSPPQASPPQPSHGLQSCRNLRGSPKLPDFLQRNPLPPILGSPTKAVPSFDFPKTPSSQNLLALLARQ
Summary of the method: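 Recombinant ULK1 (2 ug/mL) phosphorylated myelin basic protein (80 ug/mL) at 25 uM ATP; ADP formed was detected by ADP-Glo after 1 h. Compounds ran in triplicate, 16-dose 3-fold serial dilution from 30 uM, to give IC50.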

NanoLuc®-ULK1 Fusion = biological target: T2, NanoLuc®-ULK1 Fusion (Homo sapiens, UniProt O75385); test: ULK1 NanoBRET assay in HEK293T cells; assay type: cell-based
T2 construct: host or cells: HEK293T
T2 sequence (O75385 1-1050): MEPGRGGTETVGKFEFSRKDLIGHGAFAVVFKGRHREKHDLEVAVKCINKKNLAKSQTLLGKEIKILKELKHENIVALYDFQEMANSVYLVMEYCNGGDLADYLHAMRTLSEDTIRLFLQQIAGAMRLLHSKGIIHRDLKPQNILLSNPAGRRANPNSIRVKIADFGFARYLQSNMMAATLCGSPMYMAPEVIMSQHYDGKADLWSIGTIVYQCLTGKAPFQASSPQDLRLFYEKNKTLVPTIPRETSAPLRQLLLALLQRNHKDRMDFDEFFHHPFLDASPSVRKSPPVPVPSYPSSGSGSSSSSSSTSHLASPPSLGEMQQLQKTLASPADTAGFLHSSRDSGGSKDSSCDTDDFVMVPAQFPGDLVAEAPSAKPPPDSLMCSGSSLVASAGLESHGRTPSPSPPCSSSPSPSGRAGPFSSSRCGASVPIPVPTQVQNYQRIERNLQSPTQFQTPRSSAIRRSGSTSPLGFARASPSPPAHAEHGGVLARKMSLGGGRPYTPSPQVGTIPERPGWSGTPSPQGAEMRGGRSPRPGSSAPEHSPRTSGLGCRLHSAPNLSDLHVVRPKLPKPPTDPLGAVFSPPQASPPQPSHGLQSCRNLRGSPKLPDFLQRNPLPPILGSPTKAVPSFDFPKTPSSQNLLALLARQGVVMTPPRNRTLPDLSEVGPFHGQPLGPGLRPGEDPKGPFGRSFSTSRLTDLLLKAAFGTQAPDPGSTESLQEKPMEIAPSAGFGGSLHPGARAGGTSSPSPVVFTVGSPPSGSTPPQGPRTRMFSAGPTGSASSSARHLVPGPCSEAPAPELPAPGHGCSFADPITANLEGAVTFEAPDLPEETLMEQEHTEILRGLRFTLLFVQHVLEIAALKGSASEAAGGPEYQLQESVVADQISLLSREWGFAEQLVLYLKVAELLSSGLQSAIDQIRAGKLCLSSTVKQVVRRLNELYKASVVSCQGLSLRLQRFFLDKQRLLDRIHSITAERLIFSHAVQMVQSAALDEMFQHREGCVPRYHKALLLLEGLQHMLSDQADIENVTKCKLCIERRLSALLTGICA
Procedure: IC50s were also measured by ULK1 NanoBRET assay according to the following protocol: Human embryonic kidney cells (HEK293T) were transfected with NanoLuc®-ULK1 Fusion Vector (Promega #NV2211) using jetPRIME transfection reagent (Polyplus Transfection #114-15). Following 24 h, cells were trypsinized and resuspended in Opti-MEM® I (1×), Reduced Serum Medium (Gibco, #11058-021). Approximately, 7,000 cells per well (in 34 μL total volume) were replated into non-binding surface 384 well plates. Complete NanoBRET 20× Tracer K-5 reagent was prepared according to the manufacturer's directions and 2 μL were added to each well of the 384 plate (assay plate). The assay plate was mixed on an orbital shaker for 15 seconds at 700 rpm. Compounds were serially diluted at 200× final concentration in 100% DMSO, then diluted to 10× final concentration in assay media (Opti-MEM® I, Reduced Serum Medium). Next, 4 μL 10× test compounds were added to each well of the assay plate, followed by mixing at 700 rpm for 15 seconds. The assay plate was incubated for 2 h in a 37 C incubator with 5% CO2 and then equilibrated to RT for 15 min. The 3× Complete Substrate plus Inhibitor Solution was prepared according to the manufacturer's directions with a concentration of Extracellular NanoLuc® Inhibitor of 60 μM to be used at a working concentration of […]. The 3× Complete Substrate plus Inhibitor Solution was mixed and 20 μL per well was added to the assay plate and incubated at RT for 2-3 min. Donor emission wavelength (450 nm) and acceptor emission wavelength (610 nm) were measured using an assay compatible luminometer (see manufacturer's specifications).

[2] = Table 1, 25 uM ATP, MBP substrate, one hour

| IC50 [1, 2] | IC50 (NanoLuc®-ULK1 Fusion; Table 1, 2 h incubation) | IC50 (NanoLuc®-ULK1 Fusion; Table 3) | IC50 ([1]; Table 3) | SMILES |
| --- | --- | --- | --- | --- |
|  |  | < 100 nM |  | CNC(=O)c1ccccc1Nc1nc(Nc2cc(OC)c(OC)c(OC)c2)ncc1I [Compound E13, 2-((5-iodo-2-((3,4,5-trimethoxyphenyl)amino)pyrimidin-4-yl)amino)-N-methylbenzamide] |
|  |  | > 100 nM |  | CNC(=O)c1ccccc1Nc1nc(Nc2cc(OC)c(OC)c(OC)c2)ncc1F [Compound E12, 2-((5-Fluoro-2-((3,4,5-trimethoxyphenyl)amino)pyrimidin-4-yl)amino)-N-methylbenzamide] |
|  |  | > 100 nM | 5 to 100 nM | CNC(=O)c1ccccc1Nc1nc(Nc2ccc3c(c2)OCCO3)ncc1C(F)(F)F [Compound E7, 2-((2-((2,3-Dihydrobenzo[b][1,4]dioxin-6-yl)amino)-5-(trifluoromethyl)pyrimidin-4-yl)amino)-N-methylbenzamide] |
|  |  | > 100 nM | 5 to 100 nM | CNC(=O)c1ccccc1Nc1nc(Nc2ccc3c(c2)OCCO3)ncc1Br [Compound E4, 2-((5-Bromo-2-((2,3-dihydrobenzo[b][1,4]dioxin-6-yl)amino)pyrimidin-4-yl)amino)-N-methylbenzamide] |
|  |  | > 100 nM |  | CNC(=O)c1ccccc1Nc1nc(Nc2cc(OC)c(OC)c(OC)c2)ncc1C1CC1 [Compound E10, 2-((5-Cyclopropyl-2-((3,4,5-trimethoxyphenyl)amino)pyrimidin-4-yl)amino)-N-methyl-benzamide] |
|  |  | < 100 nM |  | CNC(=O)c1ccccc1Nc1nc(Nc2cc(OC)c(OC)c(OC)c2)ncc1C#N [Compound E9, 2-((5-cyano-2-((3,4,5-trimethoxyphenyl)amino)pyrimidin-4-yl)amino)-N-methylbenzamide] |
|  |  | > 100 nM | 5 to 100 nM | CNC(=O)c1ccccc1Nc1nc(Nc2ccc3c(c2)OCO3)ncc1Br [Compound E5, 2-((2-(Benzo[d][1,3]dioxol-5-ylamino)-5-bromopyrimidin-4-yl)amino)-N-methylbenzamide] |
|  |  | > 100 nM |  | CNC(=O)c1ccccc1Nc1nc(Nc2cc(OC)c(OC)c(OC)c2)ncc1C [Compound E11, N-Methyl-2-((5-methyl-2-((3,4,5-trimethoxyphenyl)amino)pyrimidin-4-yl)amino)benzamide] |
|  |  | > 100 nM | 5 to 100 nM | CNC(=O)c1ccccc1Nc1nc(Nc2ccc3c(c2)OCO3)ncc1C(F)(F)F [Compound E6, 2-((2-(Benzo[d][1,3]dioxol-5-ylamino)-5-(trifluoromethyl)pyrimidin-4-yl)amino)-N-methyl benzamide] |

More lines, now with the values behind:

| SMILES | IC50 [1, 2] | IC50 (NanoLuc®-ULK1 Fusion; Table 1, 2 h incubation) | IC50 (NanoLuc®-ULK1 Fusion; Table 3) | IC50 ([1]; Table 3) |
| --- | --- | --- | --- | --- |
| CNC(=O)c1ccccc1Nc1nc(Nc2ccc3c(c2)CCNC3)ncc1C(F)(F)F [Compound A120, N-Methyl-2-((2-((1,2,3,4-tetrahydroisoquinolin-6-yl)amino)-5-(trifluoromethyl)pyrimidin-4-yl)amino)benzamide] | 1 to 10 nM | < 100 nM |  |  |
| CC(=O)N1CCc2cc(Nc3ncc(C(F)(F)F)c(NC4CC4)n3)ccc2C1 [Compound A19] | < 1 nM | < 100 nM |  |  |
| C#CCC(=O)N1CCc2cc(Nc3ncc(C(F)(F)F)c(NC4CC4)n3)ccc2C1 [Compound A84] | 1 to 10 nM | > 100 nM |  |  |
| CNC(=O)c1ccccc1Nc1nc(Nc2ccc3c(c2)CCN(CCOC)C3)ncc1Cl [Compound A117, 2-((5-Chloro-2-((2-(2-methoxyethyl)-1,2,3,4-tetrahydroisoquinolin-6-yl)amino)pyrimidin-4-yl)amino)-N-methylbenzamide] | 1 to 10 nM | < 100 nM |  |  |
| CNC(=O)c1ccccc1Nc1nc(Nc2ccc3c(c2)CCN(CCOC)C3)ncc1Br [Compound A118, 2-((5-Bromo-2-((2-(2-methoxyethyl)-1,2,3,4-tetrahydroisoquinolin-6-yl)amino)pyrimidin-4-yl)amino)-N-methylbenzamide] | 1 to 10 nM | < 100 nM |  |  |
| FC(F)(F)c1cnc(Nc2ccc3c(c2)CCN(Cc2c[nH]cn2)C3)nc1NC1CC1 [Compound A51] | < 1 nM | < 100 nM |  |  |
| O=C(CN1CCc2cc(Nc3ncc(C(F)(F)F)c(NC4CC4)n3)ccc2C1)N1CCOCC1 [Compound A47] | < 1 nM | < 100 nM |  |  |
| COCCN1CCc2cc(Nc3ncc(C(F)(F)F)c(NC(C)C)n3)ccc2C1 [Compound A122, N^4-Isopropyl-N^2-(2-(2-methoxyethyl)-1,2,3,4-tetrahydroisoquinolin-6-yl)-5-(trifluoromethyl)pyrimidine-2,4-diamine] | 1 to 10 nM | < 100 nM |  |  |
| CNC(=O)c1ccccc1Nc1nc(Nc2ccc3c(c2)CCN(CCOC)C3)ncc1C(F)(F)F [Compound A119, 2-((2-((2-(2-Methoxyethyl)-1,2,3,4-tetrahydroisoquinolin-6-yl)amino)-5-(trifluoromethyl)pyrimidin-4-yl)amino)-N-methylbenzamide] | 1 to 10 nM | < 100 nM |  |  |
| FC(F)(F)c1cnc(Nc2ccc3c(c2)CNC3)nc1NC1CC1 [Compound A55] | < 1 nM | < 100 nM |  |  |
